Results taken from patent EP0025288A1, “Derivatives of monic acid, processes for their preparation, compositions containing them and their preparation” (priority 1979, dated 1981).
In brackets after ≈: the same amount, converted by molar mass.

Columns and labels:
[1] = system: Past multocida PA2; assay: MIC, veterinary bacteria; assay type: cell-based; conditions: veterinary bacteria (Table 2), read-out: MIC
[2] = system: Erysipelothrix rhusiopathiae NCTC 8163; assay: MIC, veterinary bacteria; assay type: cell-based; conditions: NCTC8163, veterinary bacteria (Table 2), read-out: MIC
[3] = system: S typhimurium S18; assay: MIC, veterinary bacteria; assay type: cell-based; conditions: veterinary bacteria (Table 2), read-out: MIC
[4] = system: Corynebacterium pyogenes CY1; assay: MIC, veterinary bacteria; assay type: cell-based; conditions: veterinary bacteria (Table 2), read-out: MIC
[5] = system: Strep dysgalaciae SPD1; assay: MIC, veterinary bacteria; assay type: cell-based; conditions: veterinary bacteria (Table 2), read-out: MIC
[6] = system: M pneumoniae 427a; assay: MIC, anti-mycoplasmal, Friis' broth microtiter method; assay type: cell-based; conditions: read-out: in vitro MIC, BROTH
[7] = system: Past multocida PA1; assay: MIC, veterinary bacteria; assay type: cell-based; conditions: veterinary bacteria (Table 2), read-out: MIC
[8] = Mean serum concentration in neonatal piglets after intramuscular or oral administration; assay type: in vivo; conditions: pig, 50 mg/kg; for concentration at 1 h: 60'
Method: e) Mean serum concentration in neonatal piglets of Examples 4 and 5 after intramuscular or oral administration at 50 mg/kg
Blood levels were assessed in neonatal piglets (2 to 4 animals per group and man bodyweights about 2 kg). The dose was 50 mg/kg (dose solution = 25 mg/ml in 25% ethanol). Doses were given by intramuscular injection and orally by stomach tube. Piglets were bled at intervals up to 8 and at 24 hours, and serum assayed microbiologically (B. subtilis ATCC 6633).

[9] = system: Past Haemolytica PA5; assay: MIC, veterinary bacteria; assay type: cell-based; conditions: veterinary bacteria (Table 2), read-out: MIC
[10] = system: M fermentans MWKL4; assay: MIC, anti-mycoplasmal, Friis' broth microtiter method; assay type: cell-based; conditions: read-out: in vitro MIC, BROTH
[11] = system: E coli NCTC 10418; assay: MIC, veterinary bacteria; assay type: cell-based; conditions: veterinary bacteria (Table 2), read-out: MIC
[12] = system: Bord bronchiseptica BO8; assay: MIC, veterinary bacteria; assay type: cell-based; conditions: veterinary bacteria (Table 2), read-out: MIC
[13] = system: Staph aureus 152 (pen sens); assay: MIC, veterinary bacteria; assay type: cell-based; conditions: Staphylococcus aureus, veterinary bacteria (Table 2), read-out: MIC
[14] = system: Bord bronchisptica BO9; assay: MIC, veterinary bacteria; assay type: cell-based; conditions: veterinary bacteria (Table 2), read-out: MIC
[15] = Serum binding by ultrafiltration; assay type: in vitro ADME, pig; conditions: pig, serum, compounds at 8 mcg/ml, microbiological assay (B. subtilis ATCC 6633), read-out: % bound to pig serum (converted)
Method: Serum binding was assessed by ultrafiltration of procine serum containing compounds at 8 mcg/ml, and through an Amicon CF50A ultrafiltration cone. Separation of ultrafiltrate was achieved by centrifugation.

[16] = system: S dublin S7; assay: MIC, veterinary bacteria; assay type: cell-based; conditions: veterinary bacteria (Table 2), read-out: MIC
[17] = system: Strep agalactiae SPA1; assay: MIC, veterinary bacteria; assay type: cell-based; conditions: veterinary bacteria (Table 2), read-out: MIC
[18] = system: Staph aureus Oxford; assay: MIC, veterinary bacteria; assay type: cell-based; conditions: Staphylococcus aureus, veterinary bacteria (Table 2), read-out: MIC
[19] = system: E coli E1; assay: MIC, veterinary bacteria; assay type: cell-based; conditions: veterinary bacteria (Table 2), read-out: MIC
[20] = system: Strep suis (group D) SPS11; assay: MIC, veterinary bacteria; assay type: cell-based; conditions: veterinary bacteria (Table 2), read-out: MIC
[21] = system: M suipneumoniae J2206/183b; assay: MIC, anti-mycoplasmal, Friis' broth microtiter method; assay type: cell-based; conditions: read-out: in vitro MIC, BROTH
[22] = system: Staph aureus B4 (pen resis); assay: MIC, veterinary bacteria; assay type: cell-based; conditions: Staphylococcus aureus, veterinary bacteria (Table 2), read-out: MIC
[23] = system: M pneumoniae ATCC 15492; assay: MIC, anti-mycoplasmal, Friis' broth microtiter method; assay type: cell-based; conditions: read-out: in vitro MIC, BROTH
[24] = system: Strep uberis SPU1; assay: MIC, veterinary bacteria; assay type: cell-based; conditions: veterinary bacteria (Table 2), read-out: MIC
[25] = system: M dispar NCTC 10125; assay: MIC, anti-mycoplasmal, Friis' broth microtiter method; assay type: cell-based; conditions: read-out: in vitro MIC, BROTH
[26] = system: M suipneumoniae Str 11; assay: as above; assay type: cell-based; conditions: read-out: in vitro MIC, BROTH
[27] = system: M pulmonis JB; assay: as above; assay type: cell-based; conditions: read-out: in vitro MIC, BROTH
[28] = system: M dispar H225; assay: as above; assay type: cell-based; conditions: read-out: in vitro MIC, BROTH

## CC(=CC(=O)OCCCC(=O)c1cccs1)CC1OCC(CC2OC2C(C)C(C)O)C(O)C1O (centres unmarked) [Example 4, 4(1-Thienyl-2-ylbutan-1-onyl) monate A]
[1]
  MIC: 0.07 µg/mL (≈ 0.141 µM)
[2]
  MIC: 20 µg/mL (≈ 40.3 µM)
[3]
  MIC: > 80 µg/mL
[4]
  MIC: > 80 µg/mL
[5]
  MIC: 0.156 µg/mL (≈ 0.314 µM)
[6]
  MIC: 0.312 µg/mL (≈ 0.628 µM)
[7]
  MIC: 0.312 µg/mL (≈ 0.628 µM)
[8]; im
  concentration at 10 min: 9000 ng/mL
  concentration at 20 min: 8900 ng/mL
  concentration at 40 min: 10000 ng/mL
  concentration at 1 h: 8500 ng/mL
  concentration at 2 h: 3300 ng/mL
  concentration at 3 h: 1900 ng/mL
  concentration at 4 h: 1600 ng/mL
  concentration at 6 h: 830 ng/mL
  concentration at 8 h: 710 ng/mL
  concentration at 24 h: < 120 ng/mL
[8]; po
  concentration at 10 min: 5300 ng/mL
  concentration at 20 min: 5500 ng/mL
  concentration at 40 min: 6500 ng/mL
  concentration at 1 h: 5700 ng/mL
  concentration at 2 h: 2400 ng/mL
  concentration at 3 h: 1400 ng/mL
  concentration at 4 h: 1400 ng/mL
  concentration at 6 h: 770 ng/mL
  concentration at 8 h: 740 ng/mL
  concentration at 24 h: 150 ng/mL
[9]
  MIC: 5 µg/mL (≈ 10.1 µM)
[10]
  MIC: < 0.02 µg/mL
[11]
  MIC: > 80 µg/mL
[12]
  MIC: 40 µg/mL (≈ 80.5 µM)
[13]
  MIC: 0.156 µg/mL (≈ 0.314 µM)
[14]
  MIC: 5 µg/mL (≈ 10.1 µM)
[15]
  fraction unbound: 0.012
[16]
  MIC: > 80 µg/mL
[17]
  MIC: 0.312 µg/mL (≈ 0.628 µM)
[18]
  MIC: 0.156 µg/mL (≈ 0.314 µM)
[19]
  MIC: > 80 µg/mL
[20]
  MIC: 2.5 µg/mL (≈ 5.03 µM)
[21]
  MIC: 0.078 µg/mL (≈ 0.157 µM)
[22]
  MIC: 0.156 µg/mL (≈ 0.314 µM)
[23]
  MIC: 0.312 µg/mL (≈ 0.628 µM)
[24]
  MIC: < 0.019 µg/mL
[25]
  MIC: 0.039 µg/mL (≈ 0.0785 µM)
[26]
  MIC: 0.078 µg/mL (≈ 0.157 µM)
[27]
  MIC: < 0.02 µg/mL
[28]
  MIC: < 0.02 µg/mL
